How the values were obtained:
[1] = LNP size and polydispersity index (PDI) by dynamic light scattering; format: physicochemical; details: LNP with cirRNA (SEQ ID NO: 1); for Size: in nm (unit assumed)
Protocol: (§1) Ionizable lipid, DSPC, Cholesterol and DMG-PEG 2000 were mixed at a molar ratio of 50:10:38.5:1.5 in absolute ethanol. Circular RNA and linear mRNA payloads were suspended in 25 mM Acetate Buffer (pH 4.5). To form LNPs, three volumes of luciferase encoding RNA, in the form of cirRNA (SEQ ID NO:1) and mRNA (SEQ ID NO:2) respectively, were mixed with one volume of lipids in ethanol solution by microfluidic mixing with the Nanoassemblr Ignite (Precision Nanosystems) at a flow rate of 12 ml/min. The molar ratio of ionizable lipid to ribonucleotide was 15 or 6. The final lipid concentration in solution ranged from 1.5 mM to 6 mM. After encapsulation, the particles were dialyzed twice against PBS.
(§2) The LNP size and polydispersity index (PDI), determined by dynamic light scattering (DLS), and zeta potential were measured by a Zetasizer machine (Malvern). RNA concentration and encapsulation efficacy were analyzed by the Quant-IT Ribogreen kit by calculating the percentage encapsulation at 100%−(RNA-LNPs/RNA-LNPs with Triton X-100).

[2] = RNA encapsulation efficacy by Quant-IT Ribogreen kit; format: physicochemical; details: LNP with cirRNA (SEQ ID NO: 1)
Protocol: as §1, §2

Hep G2 cells [3] = assay: In vitro toxicity (CellTiter-Glo cell viability), Hep G2; format: cell-based; details: cirRNA (SEQ ID NO: 1) LNPs; Hep G2 cells;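 also: percent of untreated cells luminescence signal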
Protocol: (§3) RAW 264.7 and Hep G2 cells were transfected with 1 μg/mL RNA-LNPs. At 72 hours post transfection, cell viability was determined with the CellTiter-Glo® reagent kit, according to the kit protocol, measured by a luminometer.
(§4) The cell viability was calculated according to the following formula: […]

RAW 264.7 cells [4] = assay: In vitro toxicity (CellTiter-Glo cell viability), RAW 264.7; format: cell-based; details: cirRNA (SEQ ID NO: 1) LNPs; RAW 264.7 cells;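 also: percent of untreated cells luminescence signal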
Protocol: as §3, §4

[5] = LNP zeta potential (Zetasizer); format: physicochemical; details: LNP with cirRNA (SEQ ID NO: 1)
Protocol: as §1, §2

Hep G2 cells [6] = assay: In vitro expression of firefly-luciferase, Hep G2; format: cell-based; details: cirRNA (SEQ ID NO: 1) LNPs; firefly-luciferase luminescence; Hep G2 cells
Protocol: (§5) RAW 264.7 and Hep G2 cells were transfected with 100 ng/mL of RNA-LNPs encoding for firefly-luciferase. At 72 hours post transfection, the cells were washed and lysed. The luciferase expression was determined in the cell lysates with the luciferase assay reagent kit (Promega), according to the kit protocol, luciferase activity was measured by a luminometer.

BALB/C mice = assay: In vivo expression, whole-body luminescence (IVIS); details: cirRNA (SEQ ID NO: 1) LNPs, BALB/C mice
Protocol: 6-8 week old, female BALB/C mice were injected with 0.05 mg*kg-1 of RNA-LNPs encoding for firefly-luciferase by intravenous injection. At 6 hours post injection, animals were intraperitoneally injected with 15 mg/ml of Luciferin substrate and whole-body luminescence was determined by a bioluminescent in vivo imaging system (IVIS).

RAW 264.7 cells [7] = assay: In vitro expression of firefly-luciferase, RAW 264.7; format: cell-based; details: cirRNA (SEQ ID NO: 1) LNPs; firefly-luciferase luminescence; RAW 264.7 cells
Protocol: as §5

| PDI [1] | Size [1] | Encapsulation Efficiency % [2] [%] | Zeta (mV) [5] [mV] | Compound | In vitro Viability HepG2 (Hep G2 cells [3]) [%] | In vitro Viability RAW (RAW 264.7 cells [4]) [%] | In vitro Expression HepG2 (Hep G2 cells [6]) | In vivo Expression (Whole Body) (BALB/C mice) | In vitro Expression RAW (RAW 264.7 cells [7]) |
| --- | --- | --- | --- | --- | --- | --- | --- | --- | --- |
| 0.115 | 116.3 | 71 | −6.298 | CCCCC/C=C\C/C=C\CCCCCCCCN(CCCCCCCC/C=C\C/C=C\CCCCC)CCOC(=O)NCc1ccncc1 [Lipid 35, 2-(di((9Z,12Z)-octadeca-9,12-dien-1-yl)amino)ethyl (pyridin-4-ylmethyl)carbamate] | 103 | 108 | 2.82E+02 | 1.16E+05 | 6.25E+03 |
| 0.138 | 125.4 | 96 | −3.556 | CCCCC/C=C\C/C=C\CCCCCCCCN(CCCCCCCC/C=C\C/C=C\CCCCC)CCOC(=O)NCCN1CCOCC1 [Lipid 36, 2-(di((9Z,12Z)-octadeca-9,12-dien-1-yl)amino)ethyl (2-morpholinoethyl)carbamate] | 82 | 95 | 9.18E+04 | 1.21E+05 | 2.03E+04 |
| 0.138 | 145.8 | 95 | 4.079 | CCCCC/C=C\C/C=C\CCCCCCCCN(CCCCCCCC/C=C\C/C=C\CCCCC)CCOC(=O)NCCN1CCN(C)CC1 [Lipid 37, 2-(di((9Z,12Z)-octadeca-9,12-dien-1-yl)amino)ethyl (2-(4-methylpiperazin-1-yl)ethyl)carbamate] | 87 | 92 | 5.96E+05 | 1.16E+05 | 1.98E+04 |
| 0.07 | 169.5 | 91 | −3.335 | CCCCC/C=C\C/C=C\CCCCCCCCN(CCCCCCCC/C=C\C/C=C\CCCCC)CCOC(=O)NCc1ncc[nH]1 [Lipid 39, 2-(di((9Z,12Z)-octadeca-9,12-dien-1-yl)amino)ethyl ((1H-imidazol-2-yl)methyl)carbamate] | 90 | 96 | 8.11E+02 | 1.15E+04 | 2.58E+03 |
| 0.163 | 186 | 91 | 5.74 | CCCCC/C=C\C/C=C\CCCCCCCCN(CCCCCCCC/C=C\C/C=C\CCCCC)CCOC(=O)NCCN(C)C [Lipid 41, 2-(di((9Z,12Z)-octadeca-9,12-dien-1-yl)amino)ethyl (2-(dimethylamino)ethyl)carbamate] | 89 | 70 | 2.77E+01 | 4.69E+04 | 1.12E+05 |
| 0.088 | 137.6 | 100 | 3.255 | CCCCCCCCC(CCCCCC)C(=O)OCCCCCCCCN(CCCCCCCCCCC(=O)OCCCCCC)CCOC(=O)NCCN1CCN(C)CC1 (stereo not shown) [Lipid 46, hexyl 11-((8-((2-hexyldecanoyl)oxy)octyl)(2-(((2-(4-methylpiperazin-1-yl)ethyl)carbamoyl)oxy)ethyl)amino)undecanoate] | 102 | 99 | 3.70E+01 | 1.92E+06 | 3.51E+02 |
|  |  |  |  | CCCCC/C=C\C/C=C\CCCCCCCCN(CCCCCC(=O)OCC(CCCCCCCC)CCCCCCCCCC)CCOC(=O)NCCCN(C)C (stereo not shown) [Lipid 81, 2-octyldodecyl 2-methyl-11-((9Z,12Z)-octadeca-9,12-dien-1-yl)-7-oxo-8-oxa-2,6,11-triazaheptadecan-17-oate] | 121 | 107 | 6.71E+04 | 1.15E+04 | 1.56E+03 |
|  |  |  |  | CCCCC/C=C\C/C=C\CCCCCCCCN(CCCCCC(=O)OCC/C=C\CCCCC)CCOC(=O)NCc1ccncc1 [Lipid 99, (Z)-non-3-en-1-yl 6-(((9Z,12Z)-octadeca-9,12-dien-1-yl)(2-(((pyridin-4-ylmethyl)carbamoyl)oxy)ethyl)amino)hexanoate] | 78 | 137 | 1.13E+04 | 5.53E+07 | 1.01E+04 |
|  |  |  |  | CCCCCCCOC(=O)CCCCCCCCCN(CCCCCCCCCC(=O)OCCCCCCC)CCOC(=O)NCCN1CCCCC1 [Lipid 118, diheptyl 10,10′-((2-(((2-(piperidin-1-yl)ethyl)carbamoyl)oxy)ethyl)azanediyl)bis(decanoate)] | 19 | 8 | 1.43E+03 | 7.90E+06 | 1.42E+04 |
|  |  |  |  | CCCCCCOC(=O)CCCCCCCCCCN(CCCCCCCCCCC(=O)OCCCCCC)CCOC(=O)NCCN1CCOCC1 [Lipid 139, dihexyl 11,11′-((2-(((2-morpholinoethyl)carbamoyl)oxy)ethyl)azanediyl)diundecanoate] | 16 | 8 | 4.85E+01 | 3.48E+06 | 1.64E+02 |
|  |  |  |  | CCCCCCCCCCCOC(=O)CCCCCN(CCCCCC(=O)OCCCCCCCCCCC)CCOC(=O)NCCN1CCN(C)CC1 [Lipid 156, diundecyl 6,6′-((2-(((2-(4-methylpiperazin-1-yl)ethyl)carbamoyl)oxy)ethyl)azanediyl)dihexanoate] | 84 | 93 | 2.86E+04 | 4.92E+04 | 1.67E+03 |
|  |  |  |  | CCCCCCCCCCCOC(=O)CCCCCN(CCCCCCCC(=O)OC(CCCCCCCC)CCCCCCCC)CCOC(=O)NCCN1CCN(C)CC1 [Lipid 160, heptadecan-9-yl 8-((2-(((2-(4-methylpiperazin-1-yl)ethyl)carbamoyl)oxy)ethyl)(6-oxo-6-(undecyloxy)hexyl)amino)octanoate] | 94 | 93 | 6.38E+05 | 4.44E+05 | 1.94E+04 |
|  |  |  |  | CCCCCCCCCC(=O)OCCCCCCCN(CCCCCCCOC(=O)CCCCCCCCC)CCOC(=O)NCc1ncc[nH]1 [Lipid 176] | 88 | 93 | 6.28E+03 | 1.31E+07 | 4.83E+04 |
|  |  |  |  | CCCCC/C=C\CCOC(=O)CCCCCN(CCCCCCCCOC(=O)C(CCCCCC)CCCCCCCC)CCOC(=O)NCCN(C)C (stereo not shown) [Lipid 184] | 91 | 88 | 9.87E+04 | 5.28E+07 | 1.93E+03 |

| Compound | PDI [1] | Size [1] | Encapsulation Efficiency % [2] [%] | Zeta (mV) [5] [mV] | In vitro Viability HepG2 (Hep G2 cells [3]) [%] | In vitro Viability RAW (RAW 264.7 cells [4]) [%] | In vitro Expression HepG2 (Hep G2 cells [6]) | In vivo Expression (Whole Body) (BALB/C mice) | In vitro Expression RAW (RAW 264.7 cells [7]) |
| --- | --- | --- | --- | --- | --- | --- | --- | --- | --- |
| CCCCCCCCC(CCCCCC)C(=O)OCCCCCCCCN(CCCCCCCCOC(=O)C(CCCCCC)CCCCCCCC)CCOC(=O)NCc1ccc(NC(=O)OC(C)(C)C)cc1 (stereo not shown) [Lipid 8, ((2-(((4-((tert-butoxycarbonyl)amino)benzyl)carbamoyl)oxy)ethyl)azanediyl)bis(octane-8,1-diyl) bis(2-hexyldecanoate)] | 0.162 | 80.1 | 84 | −20.4 | 110 | 105 | 2.33E+01 | 9.52E+04 | 6.90E+01 |

— patent US12691070B2, “Cationic lipids and preparation method thereof” (RiboX Therapeutics HK Limited, priority 2023, dated 2026)
